US20230278983A1, “INDOLE DERIVATIVES AND USES THEREOF FOR TREATING A CANCER” (Universite Claude Bernard Lyon 1, priority 2020, published 2023)

These compounds were tested against CK2 (Homo sapiens (Human), UniProt P68400) (assay: Radiometric CK2 kinase assay). Settings: not given.
Type: biochemical

Sequence of CK2 (P68400 whole entry): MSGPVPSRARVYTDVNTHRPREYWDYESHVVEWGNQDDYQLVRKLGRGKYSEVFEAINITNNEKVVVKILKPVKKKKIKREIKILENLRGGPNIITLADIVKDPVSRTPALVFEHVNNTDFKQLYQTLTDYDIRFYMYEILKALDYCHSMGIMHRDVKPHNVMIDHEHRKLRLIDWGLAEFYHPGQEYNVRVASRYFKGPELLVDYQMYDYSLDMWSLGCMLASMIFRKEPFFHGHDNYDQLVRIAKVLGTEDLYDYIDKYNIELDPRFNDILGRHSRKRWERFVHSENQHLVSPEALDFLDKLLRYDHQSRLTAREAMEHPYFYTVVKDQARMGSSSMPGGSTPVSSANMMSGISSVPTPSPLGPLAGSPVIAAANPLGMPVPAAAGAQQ

In order of falling IC50:
1. CCc1ccc(S(=O)(=O)NCCN2CCC(Cn3cc(-c4c(C(=O)OC(C)C)[nH]c5ccc(F)cc45)nn3)CC2)cc1 [AB577, Isopropyl 3-(1-((1-(2-((4-ethylphenyl)sulfonamido)ethyl)piperidin-4-yl)methyl)-1H-1,2,3-triazol-4-yl)-5-fluoro-1H-indole-2-carboxylate]  2300 nM
2. CCOC(=O)c1[nH]c2ccc(Cl)cc2c1-c1cn(CC2CCN(CCNS(=O)(=O)c3ccc(C(F)(F)F)cc3)CC2)nn1 [AB550, Ethyl 5-chloro-3-(1-((1-(2-((4-(trifluoromethyl)phenyl)sulfonamido)ethyl)piperidin-4-yl)methyl)-1H-1,2,3-triazol-4-yl)-1H-indole-2-carboxylate]  2240 nM
3. CC(C)COC(=O)c1[nH]c2ccc(F)cc2c1-c1cn(CC2CCN(CCNS(=O)(=O)c3ccc4ccccc4c3)CC2)nn1 [AB598, Isobutyl 5-fluoro-3-(1-((1-(2-(naphthalene-2-sulfonamido)ethyl)piperidin-4-yl)methyl)-1H-1,2,3-triazol-4-yl)-1H-indole-2-carboxylate]  510 nM
4. CCC(=O)c1[nH]c2ccc(F)cc2c1-c1cn(CC2CCN(CCNS(=O)(=O)c3ccc(-c4c(OC)cccc4OC)cc3)CC2)nn1 [AB1416, N-(2-(4-((4-(5-fluoro-2-propionyl-1H-indol-3-yl)-1H-1,2,3-triazol-1-yl)methyl)piperidin-1-yl)ethyl)-2′,6′-dimethoxy-[1,1′-biphenyl]-4-sulfonamide]  100 nM
5. CC(C)COC(=O)c1[nH]c2ccc(F)cc2c1-c1cn(CC2CCN(CCNS(=O)(=O)c3ccc4c(c3)OCCCO4)CC2)nn1 [AB1072, isobutyl 3-(1-((1-(2-((3,4-dihydro-2H-benzo[b][1,4]dioxepine)-7-sulfonamido)ethyl)piperidin-4-yl)methyl)-1H-1,2,3-triazol-4-yl)-5-fluoro-1H-indole-2-carboxylate]  100 nM
6. CC(C)COC(=O)c1[nH]c2ccc(F)cc2c1-c1cn(CC2CCN(CCNS(=O)(=O)c3ccc(-c4ccccc4N(C)C)cc3)CC2)nn1 [AB1209, isobutyl 3-(1-((1-(2-((2′-(dimethylamino)-[1,1′-biphenyl])-4-sulfonamido)ethyl)piperidin-4-yl)methyl)-1H-1,2,3-triazol-4-yl)-5-fluoro-1H-indole-2-carboxylate]  70 nM
7. CC(C)COC(=O)c1[nH]c2ccc(F)cc2c1-c1cn(CC2CCN(CCNS(=O)(=O)c3ccc(C4=CCOCC4)cc3)CC2)nn1 [AB1074, isobutyl 3-(1-((1-(2-((4-(3,6-dihydro-2H-pyran-4-yl)phenyl)sulfonamido)ethyl)piperidin-4-yl)methyl)-1H-1,2,3-triazol-4-yl)-5-fluoro-1H-indole-2-carboxylate]  69 nM
8. CCC(=O)c1[nH]c2ccc(F)cc2c1-c1cn(CC2CCN(CCNS(=O)(=O)c3ccc(-c4c(O)cccc4F)cc3)CC2)nn1 [AB1415, 2′-fluoro-N-(2-(4-((4-(5-fluoro-2-propionyl-1H-indol-3-yl)-1H-1,2,3-triazol-1-yl)methyl)piperidin-1-yl)ethyl)-6′-hydroxy-[1,1′-biphenyl]-4-sulfonamide]  50 nM
9. COc1cccc(OC)c1-c1ccc(S(=O)(=O)NCCN2CCC(Cn3cc(-c4c(C(C)=O)[nH]c5ccc(F)cc45)nn3)CC2)cc1F [AB1454, N-(2-(4-((4-(2-acetyl-5-fluoro-1H-indol-3-yl)-1H-1,2,3-triazol-1-yl)methyl)piperidin-1-yl)ethyl)-2-fluoro-2′,6′-dimethoxy-[1,1′-biphenyl]-4-sulfonamide]  11 nM

Same assay, conditions: compound at 0.10 μM; ATP 10 μM

In order of falling inhibition at 0.1 µM:
1. CC(=O)c1[nH]c2ccc(F)cc2c1-c1cn(C[C@@H]2CCN(CCNS(=O)(=O)c3ccc(CC(C)C)cc3)C2)nn1 [AB1319]  33%
2. CC(C)COC(=O)c1[nH]c2ccc(F)cc2c1-c1cn(CC2CCN(CCNS(=O)(=O)c3ccc(-c4ccc(C#N)cc4)cc3)CC2)nn1 [AB1134, isobutyl 3-(1-((1-(2-((4′-cyano-[1,1′-biphenyl])-4-sulfonamido)ethyl)piperidin-4-yl)methyl)-1H-1,2,3-triazol-4-yl)-5-fluoro-1H-indole-2-carboxylate]  5%

Same assay, conditions: compound at 1 μM; ATP 10 μM

In order of falling inhibition at 1 µM:
1. COCc1ccccc1-c1ccc(CN2CCC(Cn3cc(-c4c(C(=O)OCC(C)C)[nH]c5ccc(F)cc45)nn3)CC2)cc1C(C)C [AB704]  21%
2. CC(C)COC(=O)c1[nH]c2ccc(F)cc2c1-c1cn(CC2CCN(Cc3ccc(-c4cccc(C(C)C)c4)c(Cl)c3)CC2)nn1 [AB758, Isobutyl 3-(1-((1-((2-chloro-3′-isopropyl-[1,1′-biphenyl]-4-yl)methyl)piperidin-4-yl)methyl)-1H-1,2,3-triazol-4-yl)-5-fluoro-1H-indole-2-carboxylate]  17%
3. CC(C)COC(=O)c1[nH]c2ccc(F)cc2c1-c1cn(CC2CCN(Cc3ccc(Oc4ccccc4)c(C(C)C)c3)CC2)nn1 [AB697, Isobutyl 5-fluoro-3-(1-((1-(3-isopropyl-4-phenoxybenzyl)piperidin-4-yl)methyl)-1H-1,2,3-triazol-4-yl)-1H-indole-2-carboxylate]  16%
4. CC(C)CCOC(=O)c1[nH]c2ccc(F)cc2c1-c1cn(CC2CCN(CCNS(=O)(=O)c3ccc(C(C)C)cc3)CC2)nn1 [AB664, Isopentyl 5-fluoro-3-(1-((1-(2-((4-isopropylphenyl)sulfonamido)ethyl)piperidin-4-yl)methyl)-1H-1,2,3-triazol-4-yl)-1H-indole-2-carboxylate]  15%
5. CC(C)CCOc1ccc(CN2CCC(Cn3cc(-c4c(C(=O)OCC(C)C)[nH]c5ccc(F)cc45)nn3)CC2)cc1Cl [AB746, Isobutyl 3-(1-((1-(3-chloro-4-(isopentyloxy)benzyl)piperidin-4-yl)methyl)-1H-1,2,3-triazol-4-yl)-5-fluoro-1H-indole-2-carboxylate]  15%
6. CC(C)COC(=O)c1[nH]c2ccc(F)cc2c1-c1cn(CC2CCN(Cc3ccc(OCC(C)C)c(Cl)c3)CC2)nn1 [AB760, Isobutyl 3-(1-((1-(3-chloro-4-isobutoxybenzyl)piperidin-4-yl)methyl)-1H-1,2,3-triazol-4-yl)-5-fluoro-1H-indole-2-carboxylate]  15%
7. COCc1ccccc1-c1ccc(CN2CCC(Cn3cc(-c4c(C(=O)OCC(C)C)[nH]c5ccc(F)cc45)nn3)CC2)cc1Cl [AB680, Isobutyl 3-(1-((1-((2-chloro-2′-(methoxymethyl)-[1,1′-biphenyl]-4-yl)methyl)piperidin-4-yl)methyl)-1H-1,2,3-triazol-4-yl)-5-fluoro-1H-indole-2-carboxylate]  11%
8. COc1ccccc1-c1ccc(CN2CCC(Cn3cc(-c4c(C(=O)OCC(C)C)[nH]c5ccc(F)cc45)nn3)CC2)cc1Cl [AB689, Isobutyl 3-(1-((1-((2-chloro-2′-methoxy-[1,1′-biphenyl]-4-yl)methyl)piperidin-4-yl)methyl)-1H-1,2,3-triazol-4-yl)-5-fluoro-1H-indole-2-carboxylate]  6%
9. COc1ccc(C)cc1-c1ccc(CN2CCC(Cn3cc(-c4c(C(=O)OCC(C)C)[nH]c5ccc(F)cc45)nn3)CC2)cc1Cl [AB692]  5%
10. CC(=O)c1cccc(Oc2ccc(CN3CCC(Cn4cc(-c5c(C(=O)OCC(C)C)[nH]c6ccc(F)cc56)nn4)CC3)cc2C(C)C)c1 [AB718, Isobutyl 3-(1-((1-(4-(3-acetylphenoxy)-3-isopropylbenzyl)piperidin-4-yl)methyl)-1H-1,2,3-triazol-4-yl)-5-fluoro-1H-indole-2-carboxylate]  5%
11. CC(C)COC(=O)c1[nH]c2ccc(F)cc2c1-c1cn(CC2CCN(Cc3ccc(Oc4cccc(C(C)C)c4)c(C(C)C)c3)CC2)nn1 [AB713, Isobutyl 5-fluoro-3-(1-((1-(3-isopropyl-4-(3-isopropylphenoxy)benzyl)piperidin-4-yl)methyl)-1H-1,2,3-triazol-4-yl)-1H-indole-2-carboxylate]  5%
12. CC(C)COC(=O)c1[nH]c2ccc(F)cc2c1-c1cn(CC2CCN(Cc3ccc(Oc4ccc5c(c4)CCO5)c(C(C)C)c3)CC2)nn1 [AB717, Isobutyl 3-(1-((1-(4-((2,3-dihydrobenzofuran-5-yl)oxy)-3-isopropylbenzyl)piperidin-4-yl)methyl)-1H-1,2,3-triazol-4-yl)-5-fluoro-1H-indole-2-carboxylate]  2%

Same assay, conditions: inhibition of CK2 activity; ATP 10 μM

In order of rising IC50:
1. CC(C)COC(=O)c1[nH]c2ccc(F)cc2c1-c1cn(CC2CCN(CCNS(=O)(=O)N3CCC(c4ccccc4)CC3)CC2)nn1 [AB929, isobutyl 5-fluoro-3-(1-((1-(2-((4-phenylpiperidine)-1-sulfonamido)ethyl)piperidin-4-yl)methyl)-1H-1,2,3-triazol-4-yl)-1H-indole-2-carboxylate]  58 nM
2. Cc1ccc(CS(=O)(=O)NCCN2CCC(Cn3cc(-c4c(C(=O)OCC(C)C)[nH]c5ccc(F)cc45)nn3)CC2)cc1 [AB1210, isobutyl 5-fluoro-3-(1-((1-(2-((p-tolylmethyl)sulfonamido)ethyl)piperidin-4-yl)methyl)-1H-1,2,3-triazol-4-yl)-1H-indole-2-carboxylate]  85 nM
3. CC(C)COC(=O)c1[nH]c2ccc(F)cc2c1-c1cn(CC2CCN(CCNS(=O)(=O)Cc3ccc(Cl)cc3)CC2)nn1 [AB936, isobutyl 3-(1-((1-(2-(((4-chlorophenyl)methyl)sulfonamido)ethyl)piperidin-4-yl)methyl)-1H-1,2,3-triazol-4-yl)-5-fluoro-1H-indole-2-carboxylate]  550 nM
4. CC(C)COC(=O)c1[nH]c2ccc(F)cc2c1-c1cn(CC2CCN(CCNS(=O)(=O)Cc3cccc(Cl)c3)CC2)nn1 [AB937, isobutyl 3-(1-((1-(2-(((3-chlorophenyl)methyl)sulfonamido)ethyl)piperidin-4-yl)methyl)-1H-1,2,3-triazol-4-yl)-5-fluoro-1H-indole-2-carboxylate]  800 nM
5. O=C(O)c1[nH]c2ccc(Cl)cc2c1-c1cn(CC2CCN(CCNS(=O)(=O)c3ccc(Cl)cc3)CC2)nn1 [AB201, 5-Chloro-3-(1-((1-(2-((4-chlorophenyl)sulfonamido)ethyl)piperidin-4-yl)methyl)-1H-1,2,3-triazol-4-yl)-1H-indole-2-carboxylic acid]  10100 nM
